Assay results published in US20220088016A1, “CANCER TREATMENT USING MULTI-TARGETED KINASE INHIBITOR IN COMBINATION OF PROTEIN KINASE BIOMARKERS” (ZHEJIANG CROWNMAB BIOTECH CO. LTD., priority 2019, published 2022).

What was measured:
Test in all cases: Kinase profiling
Format in all cases: binding
Conditions in all cases: read-out: % Ctrl @ 1000 nM
GSK3B = GSK3B (Homo sapiens, UniProt P49841)
PRKCI = PRKCI (Homo sapiens, UniProt P41743)
AAK1 = AAK1 (Homo sapiens, UniProt Q2M2I8)
MLCK = biological target: T1, MLCK (Homo sapiens, UniProt Q32MK0)
T1 construct: T7 phage fusion (stated for most kinases of the panel only); made in house; host or cells: T7 phage in E. coli (BL21-derived) or HEK-293 cells

MET = biological target: T2, MET (Homo sapiens, UniProt P08581)
T2 construct: T7 phage fusion (stated for most kinases of the panel only); made in house; host or cells: T7 phage in E. coli (BL21-derived) or HEK-293 cells

NEK7 = biological target: T3, NEK7 (Homo sapiens, UniProt Q8TDX7)
T3 construct: T7 phage fusion (said for most assays); made in house

DCAMKL2 = DCAMKL2 (Homo sapiens, UniProt Q8N568)
PCTK1 = PCTK1 (Homo sapiens, UniProt Q00536)
CSNK2A2 = CSNK2A2 (Homo sapiens, UniProt P19784)
ERK5 = ERK5 (Homo sapiens, UniProt Q13164)
EPHA4 = EPHA4 (Homo sapiens, UniProt P54764)
[1] = biological target: ABL1 (E255K)-phosphorylated (Homo sapiens, UniProt P00519, E255K)
TSSK3 = TSSK3 (Homo sapiens, UniProt Q96PN8)
ERBB2 = ERBB2 (Homo sapiens, UniProt P04626)
HIPK3 = HIPK3 (Homo sapiens, UniProt Q9H422)
LCK = LCK (Homo sapiens, UniProt P06239)
PIK3CA (C420R) = PIK3CA (C420R) (Homo sapiens, UniProt P42336, C420R)
[2] = biological target: EGFR (L747-E749del, A750P) (Homo sapiens, UniProt P00533, A750P/DEL747-749)
MARK1 = MARK1 (Homo sapiens, UniProt Q9P0L2)
MERTK = biological target: T4, MERTK (Homo sapiens, UniProt Q12866)
T4 construct: T7 phage fusion (stated for most kinases of the panel only); made in house; host or cells: T7 phage in E. coli (BL21-derived) or HEK-293 cells

CAMK1 = CAMK1 (Homo sapiens, UniProt Q14012)
FGFR4 = FGFR4 (Homo sapiens, UniProt P22455)
ABL1-phosphorylated = ABL1-phosphorylated (Homo sapiens, UniProt P00519)
CSNK1A1 = CSNK1A1 (Homo sapiens, UniProt P48729)
ROCK1 = ROCK1 (Homo sapiens, UniProt Q13464)
CSNK2A1 = CSNK2A1 (Homo sapiens, UniProt P68400)
AURKA = AURKA (Homo sapiens, UniProt O14965)
STK36 = STK36 (Homo sapiens, UniProt Q9NRP7)
PDPK1 = PDPK1 (Homo sapiens, UniProt O15530)
HIPK4 = HIPK4 (Homo sapiens, UniProt Q8NE63)
CDK4-cyclinD1 = CDK4-cyclinD1 (Homo sapiens, UniProt P11802)
IKK-alpha = IKK-alpha (Homo sapiens, UniProt O15111)
EGFR = EGFR (Homo sapiens, UniProt P00533)
CDKL5 = CDKL5 (Homo sapiens, UniProt O76039)
[3] = biological target: ABL1 (F317I)-nonphosphorylated (Homo sapiens, UniProt P00519, F317I)
RAF1 = RAF1 (Homo sapiens, UniProt P04049)
MAP3K3 = MAP3K3 (Homo sapiens, UniProt Q99759)
FLT3 (D835Y) = FLT3 (D835Y) (Homo sapiens, UniProt P36888, D835Y)
EPHB3 = EPHB3 (Homo sapiens, UniProt P54753)

T4 sequence (Q12866 21-999): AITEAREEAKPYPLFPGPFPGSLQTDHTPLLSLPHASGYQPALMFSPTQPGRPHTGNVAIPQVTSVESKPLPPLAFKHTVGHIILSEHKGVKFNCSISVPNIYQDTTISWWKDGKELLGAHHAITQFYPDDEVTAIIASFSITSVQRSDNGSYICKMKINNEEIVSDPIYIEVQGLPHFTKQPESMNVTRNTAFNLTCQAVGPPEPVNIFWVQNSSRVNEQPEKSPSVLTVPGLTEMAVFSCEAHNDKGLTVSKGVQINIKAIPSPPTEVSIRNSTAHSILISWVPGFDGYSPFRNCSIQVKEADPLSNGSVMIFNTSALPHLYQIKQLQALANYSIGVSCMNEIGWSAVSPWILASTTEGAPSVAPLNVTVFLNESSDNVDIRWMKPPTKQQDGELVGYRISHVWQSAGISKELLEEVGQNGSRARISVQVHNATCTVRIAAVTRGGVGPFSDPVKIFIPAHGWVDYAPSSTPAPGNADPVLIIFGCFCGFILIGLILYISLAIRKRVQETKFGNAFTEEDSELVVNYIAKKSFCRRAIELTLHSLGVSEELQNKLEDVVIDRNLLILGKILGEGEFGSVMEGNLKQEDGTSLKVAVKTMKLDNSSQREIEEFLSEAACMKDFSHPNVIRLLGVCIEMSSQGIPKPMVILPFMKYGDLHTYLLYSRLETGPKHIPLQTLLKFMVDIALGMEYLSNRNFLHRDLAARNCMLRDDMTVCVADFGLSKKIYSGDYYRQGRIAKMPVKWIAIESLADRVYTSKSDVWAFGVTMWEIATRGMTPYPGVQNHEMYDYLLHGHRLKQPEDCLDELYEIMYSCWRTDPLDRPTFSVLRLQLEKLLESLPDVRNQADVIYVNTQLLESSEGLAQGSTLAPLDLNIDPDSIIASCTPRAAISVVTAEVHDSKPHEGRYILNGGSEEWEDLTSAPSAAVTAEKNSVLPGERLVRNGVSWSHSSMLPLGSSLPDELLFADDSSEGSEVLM
Sequence of PIK3CA (C420R) (P42336 whole entry C420R): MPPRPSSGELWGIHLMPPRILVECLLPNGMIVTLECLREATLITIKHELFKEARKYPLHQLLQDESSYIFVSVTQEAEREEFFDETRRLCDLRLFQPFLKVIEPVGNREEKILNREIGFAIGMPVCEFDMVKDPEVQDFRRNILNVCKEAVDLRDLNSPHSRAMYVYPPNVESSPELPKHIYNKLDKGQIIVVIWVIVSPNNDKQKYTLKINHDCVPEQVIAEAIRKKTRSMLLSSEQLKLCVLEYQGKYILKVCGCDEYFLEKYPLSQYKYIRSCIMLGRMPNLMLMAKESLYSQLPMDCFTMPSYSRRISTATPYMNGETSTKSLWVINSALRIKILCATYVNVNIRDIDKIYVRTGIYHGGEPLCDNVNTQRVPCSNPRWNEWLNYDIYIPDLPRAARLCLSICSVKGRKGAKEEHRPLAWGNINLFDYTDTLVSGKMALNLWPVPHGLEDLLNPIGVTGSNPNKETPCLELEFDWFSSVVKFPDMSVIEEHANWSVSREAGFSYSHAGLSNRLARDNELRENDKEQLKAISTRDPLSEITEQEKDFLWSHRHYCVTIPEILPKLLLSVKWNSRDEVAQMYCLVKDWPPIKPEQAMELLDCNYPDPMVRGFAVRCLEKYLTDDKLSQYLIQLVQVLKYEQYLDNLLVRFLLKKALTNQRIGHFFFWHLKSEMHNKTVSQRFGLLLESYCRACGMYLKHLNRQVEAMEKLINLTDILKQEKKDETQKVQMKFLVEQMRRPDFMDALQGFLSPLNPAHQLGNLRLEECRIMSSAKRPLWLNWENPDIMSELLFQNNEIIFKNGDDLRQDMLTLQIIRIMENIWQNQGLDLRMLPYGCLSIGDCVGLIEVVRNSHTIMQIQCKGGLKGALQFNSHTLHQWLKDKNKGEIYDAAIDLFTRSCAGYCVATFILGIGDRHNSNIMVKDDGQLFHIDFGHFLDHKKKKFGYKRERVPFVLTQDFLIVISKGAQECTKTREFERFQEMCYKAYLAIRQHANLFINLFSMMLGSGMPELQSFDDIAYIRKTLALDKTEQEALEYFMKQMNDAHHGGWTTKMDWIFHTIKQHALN
T3 sequence (Q8TDX7 whole entry, the tested form may be a part): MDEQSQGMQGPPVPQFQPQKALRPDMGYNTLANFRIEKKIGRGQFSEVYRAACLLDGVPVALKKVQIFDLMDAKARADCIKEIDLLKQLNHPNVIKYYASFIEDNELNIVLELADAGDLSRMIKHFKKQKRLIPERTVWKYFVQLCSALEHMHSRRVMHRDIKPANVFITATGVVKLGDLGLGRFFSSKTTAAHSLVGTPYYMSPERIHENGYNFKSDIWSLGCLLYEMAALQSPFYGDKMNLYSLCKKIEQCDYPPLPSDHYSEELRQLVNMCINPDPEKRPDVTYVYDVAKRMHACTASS
Sequence of LCK (P06239 whole entry): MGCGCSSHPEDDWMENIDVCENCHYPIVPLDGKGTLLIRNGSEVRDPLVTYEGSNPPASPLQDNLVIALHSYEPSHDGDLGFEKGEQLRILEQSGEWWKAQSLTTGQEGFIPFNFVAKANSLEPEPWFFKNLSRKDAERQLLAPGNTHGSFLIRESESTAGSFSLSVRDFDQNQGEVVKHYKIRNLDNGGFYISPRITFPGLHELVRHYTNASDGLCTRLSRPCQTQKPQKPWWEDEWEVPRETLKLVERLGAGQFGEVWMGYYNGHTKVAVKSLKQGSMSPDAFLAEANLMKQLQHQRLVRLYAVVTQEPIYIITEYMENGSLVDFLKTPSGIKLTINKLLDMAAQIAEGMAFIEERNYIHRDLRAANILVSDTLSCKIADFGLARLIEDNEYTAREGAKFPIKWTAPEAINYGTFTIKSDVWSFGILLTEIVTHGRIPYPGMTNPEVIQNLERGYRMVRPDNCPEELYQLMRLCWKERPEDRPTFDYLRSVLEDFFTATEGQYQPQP
Sequence of CSNK1A1 (P48729 whole entry): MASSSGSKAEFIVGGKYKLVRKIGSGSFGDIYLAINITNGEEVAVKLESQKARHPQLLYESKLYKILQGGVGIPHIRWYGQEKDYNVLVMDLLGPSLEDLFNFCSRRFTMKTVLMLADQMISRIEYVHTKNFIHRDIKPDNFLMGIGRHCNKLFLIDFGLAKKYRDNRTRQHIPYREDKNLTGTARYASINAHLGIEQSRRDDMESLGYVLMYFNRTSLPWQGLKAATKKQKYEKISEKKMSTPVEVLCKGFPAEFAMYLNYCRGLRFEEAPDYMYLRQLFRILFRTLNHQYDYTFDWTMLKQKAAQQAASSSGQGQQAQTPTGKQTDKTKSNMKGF
Sequence of CSNK2A2 (P19784 whole entry): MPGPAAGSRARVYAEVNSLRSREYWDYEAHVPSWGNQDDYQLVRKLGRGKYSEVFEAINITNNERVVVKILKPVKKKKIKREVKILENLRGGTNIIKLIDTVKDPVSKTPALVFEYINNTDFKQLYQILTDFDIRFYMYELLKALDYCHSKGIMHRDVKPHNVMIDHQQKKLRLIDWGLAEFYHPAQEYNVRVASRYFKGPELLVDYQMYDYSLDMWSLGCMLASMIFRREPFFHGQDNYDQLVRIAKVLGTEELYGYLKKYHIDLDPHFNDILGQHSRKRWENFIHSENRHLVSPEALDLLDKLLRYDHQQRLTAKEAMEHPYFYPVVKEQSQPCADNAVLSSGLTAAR
Sequence of EGFR (P00533 25-1210): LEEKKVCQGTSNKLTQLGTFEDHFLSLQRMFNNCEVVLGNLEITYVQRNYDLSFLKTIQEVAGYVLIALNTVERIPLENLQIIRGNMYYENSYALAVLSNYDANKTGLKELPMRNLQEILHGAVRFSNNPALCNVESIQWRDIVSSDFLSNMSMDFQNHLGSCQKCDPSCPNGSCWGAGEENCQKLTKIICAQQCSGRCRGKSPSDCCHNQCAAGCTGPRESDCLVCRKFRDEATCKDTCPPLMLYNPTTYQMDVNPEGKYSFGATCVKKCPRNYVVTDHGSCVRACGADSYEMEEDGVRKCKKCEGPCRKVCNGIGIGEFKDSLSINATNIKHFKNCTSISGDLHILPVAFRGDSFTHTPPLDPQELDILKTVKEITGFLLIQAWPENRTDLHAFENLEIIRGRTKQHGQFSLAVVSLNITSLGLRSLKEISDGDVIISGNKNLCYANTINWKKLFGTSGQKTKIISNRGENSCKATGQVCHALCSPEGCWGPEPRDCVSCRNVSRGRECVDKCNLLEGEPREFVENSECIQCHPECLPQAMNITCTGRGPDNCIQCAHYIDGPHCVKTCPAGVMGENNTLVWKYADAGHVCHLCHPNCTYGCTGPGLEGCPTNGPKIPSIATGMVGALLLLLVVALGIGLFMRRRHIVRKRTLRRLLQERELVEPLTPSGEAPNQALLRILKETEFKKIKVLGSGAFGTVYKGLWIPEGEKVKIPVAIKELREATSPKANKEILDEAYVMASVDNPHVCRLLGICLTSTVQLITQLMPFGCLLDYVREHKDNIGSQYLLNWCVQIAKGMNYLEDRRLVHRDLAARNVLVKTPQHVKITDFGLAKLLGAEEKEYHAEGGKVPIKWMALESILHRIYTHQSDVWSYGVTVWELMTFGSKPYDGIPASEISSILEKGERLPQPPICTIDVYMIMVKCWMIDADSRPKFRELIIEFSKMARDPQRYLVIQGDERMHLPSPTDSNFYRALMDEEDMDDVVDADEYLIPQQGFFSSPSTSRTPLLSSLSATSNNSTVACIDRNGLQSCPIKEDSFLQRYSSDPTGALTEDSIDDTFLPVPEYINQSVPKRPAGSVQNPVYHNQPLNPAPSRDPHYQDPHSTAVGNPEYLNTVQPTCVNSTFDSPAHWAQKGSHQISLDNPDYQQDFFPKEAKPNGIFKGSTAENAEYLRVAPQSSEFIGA
Sequence of TSSK3 (Q96PN8 whole entry): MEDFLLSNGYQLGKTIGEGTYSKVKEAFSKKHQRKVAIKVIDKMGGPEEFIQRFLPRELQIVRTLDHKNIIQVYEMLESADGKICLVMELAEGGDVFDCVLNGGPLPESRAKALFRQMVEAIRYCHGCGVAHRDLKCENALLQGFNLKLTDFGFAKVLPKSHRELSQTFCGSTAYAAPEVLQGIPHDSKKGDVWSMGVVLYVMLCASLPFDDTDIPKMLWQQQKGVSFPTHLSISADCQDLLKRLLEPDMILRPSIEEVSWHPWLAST

Cc1cc(Oc2cc(NC(=O)C3CC3)ncn2)ccc1NC(=O)Nc1ccc(Cl)c(C(F)(F)F)c1 [CBT-102]
remaining activity at 1 µM (GSK3B): 42% | remaining activity at 1 µM (PRKCI): 74% | remaining activity at 1 µM (AAK1): 96% | remaining activity at 1 µM (MLCK): 100% | remaining activity at 1 µM (MET): 80% | remaining activity at 1 µM (NEK7): 88% | remaining activity at 1 µM (DCAMKL2): 95% | remaining activity at 1 µM (PCTK1): 88% | remaining activity at 1 µM (CSNK2A2): 100% | remaining activity at 1 µM (ERK5): 88% | remaining activity at 1 µM (EPHA4): 49% | remaining activity at 1 µM [1]: 92% | remaining activity at 1 µM (TSSK3): 100% | remaining activity at 1 µM (ERBB2): 93% | remaining activity at 1 µM (HIPK3): 78% | remaining activity at 1 µM (LCK): 15% | remaining activity at 1 µM (PIK3CA (C420R)): 100% | remaining activity at 1 µM [2]: 80% | remaining activity at 1 µM (MARK1): 100% | remaining activity at 1 µM (MERTK): 23% | remaining activity at 1 µM (CAMK1): 74% | remaining activity at 1 µM (FGFR4): 92% | remaining activity at 1 µM (ABL1-phosphorylated): 67% | remaining activity at 1 µM (CSNK1A1): 99% | remaining activity at 1 µM (ROCK1): 100% | remaining activity at 1 µM (CSNK2A1): 100% | remaining activity at 1 µM (AURKA): 86% | remaining activity at 1 µM (STK36): 2.5% | remaining activity at 1 µM (PDPK1): 100% | remaining activity at 1 µM (HIPK4): 11% | remaining activity at 1 µM (CDK4-cyclinD1): 99% | remaining activity at 1 µM (IKK-alpha): 93% | remaining activity at 1 µM (EGFR): 76% | remaining activity at 1 µM (CDKL5): 97% | remaining activity at 1 µM [3]: 70% | remaining activity at 1 µM (RAF1): 3.4% | remaining activity at 1 µM (MAP3K3): 95% | remaining activity at 1 µM (FLT3 (D835Y)): 61% | remaining activity at 1 µM (EPHB3): 82%
